{"source": "patent US20140243302A1", "about": "“BRIDGED BICYCLIC COMPOUNDS FOR THE TREATMENT OF BACTERIAL INFECTIONS” (priority 2011, published 2014)"}
{"tested_on": "Staphylococcus aureus Smith", "test": "MIC assay, modified agar dilution (CLSI), S. aureus Smith", "assay_type": "cell-based", "conditions": "Staphylococcus aureus, agar dilution, 35° C., 16-20 hr; lowest concentration that completely inhibited growth; read-out: S_aureus_Smith_WT_MIC", "procedure,_shortened": "(§1)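 Strains were spotted at about 1×10^4 CFU onto compound-containing Mueller Hinton agar (two-fold series, 128-0.001 μg/mL), horse blood 5% added for pneumococcus and enterococcus. MIC read after 16-20 hr at 35 °C, following a modified CLSI agar dilution method.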", "units": {"MIC": "µg/mL"}}
{"smiles": "Cc1ccc2ccc(=O)n(CCC34CCC(NCc5ccc6c(n5)NC(=O)CO6)(CC3)CO4)c2n1.Cl", "note": "[Example 111, 6-((1-(2-(7-Methyl-2-oxo-1,8-naphthyridin-1(2H)-yl)ethyl)-2-oxabicyclo[2.2.2]octan-4-ylamino)methyl)-2H-pyrido[3,2-b][1,4]oxazin-3(4H)-one Hydrochloride]", "MIC": 0.125}
{"smiles": "CN(C)c1nc2c(CCC34CCC(NCc5ccc6c(n5)NC(=O)CO6)(CC3)CO4)ccnc2cc1F", "note": "[Example 154, 6-((1-(2-(6-(Dimethylamino)-7-fluoro-1,5-naphthyridin-4-yl)ethyl)-2-oxabicyclo[2.2.2]octan-4-ylamino)methyl)-2H-pyrido[3,2-b][1,4]oxazin-3(4H)-one]", "MIC": 1}
{"smiles": "COc1ccc2ncc(F)c(CCC34CCC(NCc5nc6c(cc5F)OCC(=O)N6)(CC3)CO4)c2n1", "note": "[Example 98, 7-Fluoro-6-(((1-(2-(3-fluoro-6-methoxy-1,5-naphthyridin-4-yl)ethyl)-2-oxabicyclo[2.2.2]octan-4-yl)amino)methyl)-2H-pyrido[3,2-b][1,4]oxazin-3(4H)-one]", "MIC": 0.016}
{"smiles": "COc1ccc2ncc(F)c(C[C@H](O)C34CCC(NCc5ccc6c(n5)NCCO6)(CC3)CO4)c2n1", "note": "[Example 206, (S)-6-(((1-(2-(3-Fluoro-6-methoxy-1,5-naphthyridin-4-yl)-1-hydroxyethyl)-2-oxabicyclo[2.2.2]octan-4-yl)ammonio)methyl)-3,4-dihydro-2H-pyrido[3,2-b][1,4]oxazin-4-ium chloride]", "MIC": 0.06}
{"smiles": "COc1ccc2ncc(F)c(CCC34CCC(NCc5cnc6[nH]ccc6c5)(CC3)CO4)c2n1", "note": "[Example 81, N-((1H-Pyrrolo[2,3-b]pyridin-5-yl)methyl)-1-(2-(3-fluoro-6-methoxy-1,5-naphthyridin-4-yl)ethyl)-2-oxabicyclo[2.2.2]octan-4-amine]", "MIC": 0.5}
{"smiles": "Cl.O=C1COc2ccc(CNC34CCC(CCn5c(=O)ccc6ncc(OCC7CC7C(=O)O)cc65)(CC3)OC4)nc2N1", "note": "(centres unmarked) [Example 283, 2-((6-Oxo-5-(2-(4-((3-oxo-3,4-dihydro-2H-pyrido[3,2-b][1,4]oxazin-6-yl)methylamino)-2-oxabicyclo[2.2.2]octan-1-yl)ethyl)-5,6-dihydro-1,5-naphthyridin-3-yloxy)methyl)cyclopropanecarboxylic Acid Hydrochloride]", "MIC": 16}
{"smiles": "COc1ccc2ncc(F)c(CCC34CCC(NCc5ccc6oc(=O)[nH]c6n5)(CC3)CO4)c2n1", "note": "[Example 107, 5-((1-(2-(3-Fluoro-6-methoxy-1,5-naphthyridin-4-yl)ethyl)-2-oxabicyclo[2.2.2]octan-4-ylamino)methyl)oxazolo[4,5-b]pyridin-2(3H)-one]", "MIC": 32}
{"smiles": "COc1ccc2ncc(F)c(CCC34CCC(NC/C=C/c5ccccn5)(CC3)CO4)c2n1", "note": "[Example 193, (E)-1-(2-(3-Fluoro-6-methoxy-1,5-naphthyridin-4-yl)ethyl)-N-(3-(pyridin-2-yl)allyl)-2-oxabicyclo[2.2.2]octan-4-amine]", "MIC": 0.031}
{"smiles": "COc1ccc2ncc(F)c(CCC34CCC(NS(=O)(=O)c5ccc(C)c(F)c5)(CC3)CO4)c2n1", "note": "[Example 71, 3-Fluoro-N-(1-(2-(3-fluoro-6-methoxy-1,5-naphthyridin-4-yl)ethyl)-2-oxabicyclo[2.2.2]octan-4-yl)-4-methylbenzenesulfonamide]", "MIC": 1}
{"smiles": "COc1ccc2ncc(F)c(CCC34CCC(NCc5nn(C)cc5Cl)(CC3)CO4)c2n1", "note": "[Example 93, N-((4-Chloro-1-methyl-1H-pyrazol-3-yl)methyl)-1-(2-(3-fluoro-6-methoxy-1,5-naphthyridin-4-yl)ethyl)-2-oxabicyclo[2.2.2]octan-4-amine]", "MIC": 16}
{"smiles": "COc1cc(C)c2ncc(F)c(CC(O)C34CCC(NCc5ccc6c(n5)NC(=O)CO6)(CC3)CO4)c2c1", "note": "(centres unmarked) [Example 140, 6-[({1-[2-(3-Fluoro-6-methoxy-8-methylquinolin-4-yl)-1-hydroxyethyl]-2-oxabicyclo[2.2.2]oct-4-yl}amino)methyl]-2H-pyrido[3,2-b][1,4]oxazin-3(4H)-one]", "MIC": 0.063}
{"smiles": "N#Cc1ccc2c(c1)N(CCC13CCC(NCc4ccc5c(n4)NC(=O)CO5)(CC1)CO3)C(=O)CO2", "note": "[Example 202, 1-(2-(6-Cyano-3-oxo-2H-benzo[b][1,4]oxazin-4(3H)-yl)ethyl)-N-((3-oxo-3,4-dihydro-2H-pyrido[3,2-b][1,4]oxazin-6-yl)methyl)-2-oxabicyclo[2.2.2]octan-4-aminium chloride]", "MIC": 0.25}
{"smiles": "COc1ccc2ncc(F)c(CCC34CCC(NCc5cnc(N6CCCC6)nc5)(CC3)CO4)c2n1", "note": "[Example 78, 1-(2-(3-Fluoro-6-methoxy-1,5-naphthyridin-4-yl)ethyl)-N-((2-(pyrrolidin-1-yl)pyrimidin-5-yl)methyl)-2-oxabicyclo[2.2.2]octan-4-amine]", "MIC": 0.25}
{"smiles": "O=C1COc2ccc(CNC34CCC(CCc5c(F)cnc6ccc(N7CCOCC7)nc56)(CC3)OC4)nc2N1", "note": "[Example 28, 6-((1-(2-(3-Fluoro-6-morpholino-1,5-naphthyridin-4-yl)ethyl)-2-oxabicyclo[2.2.2]octan-4-ylamino)methyl)-2H-pyrido[3,2-b][1,4]oxazin-3(4H)-one]", "MIC": 0.5}
{"smiles": "COc1ccc2ncc(F)c(CCC34CCC(NCc5ccc6c(n5)NC(=O)CO6)(CC3)C4)c2n1", "note": "[Example 12, 6-((4-(2-(3-Fluoro-6-methoxy-1,5-naphthyridin-4-yl)ethyl)bicyclo[2.2.1]heptan-1-ylamino)methyl)-2H-pyrido[3,2-b][1,4]oxazin-3(4H)-one]", "MIC": 0.25}
{"smiles": "O=C1COc2ccc(CNC34CCC(CCn5c(=O)ccc6cccnc65)(CC3)OC4)nc2N1", "note": "[Example 116, 6-((1-(2-(2-Oxo-1,8-naphthyridin-1(2H)-yl)ethyl)-2-oxabicyclo[2.2.2]octan-4-ylamino)methyl)-2H-pyrido[3,2-b][1,4]oxazin-3(4H)-one]", "MIC": 16}
{"smiles": "COc1ccc2ncc(F)c(CCC34CCC(NCc5ccc6cc[nH]c6n5)(CC3)CO4)c2n1", "note": "[Example 80, N-((1H-Pyrrolo[2,3-b]pyridin-6-yl)methyl)-1-(2-(3-fluoro-6-methoxy-1,5-naphthyridin-4-yl)ethyl)-2-oxabicyclo[2.2.2]octan-4-amine]", "MIC": 0.063}
{"smiles": "COc1ccc2ncc(F)c(CCC34CCC(NCc5ccc(OC(F)F)c(OC)c5)(CC3)CO4)c2n1", "note": "[Example 95, N-(4-(Difluoromethoxy)-3-methoxybenzyl)-1-(2-(3-fluoro-6-methoxy-1,5-naphthyridin-4-yl)ethyl)-2-oxabicyclo[2.2.2]octan-4-amine]", "MIC": 0.5}
{"smiles": "COc1ccc2ncc(F)c(CCC34CCC(NCc5cnc(N(C)C)nc5)(CC3)CO4)c2n1", "note": "[Example 85, 5-((1-(2-(3-Fluoro-6-methoxy-1,5-naphthyridin-4-yl)ethyl)-2-oxabicyclo[2.2.2]octan-4-ylamino)methyl)-N,N-dimethylpyrimidin-2-amine]", "MIC": 0.125}
{"smiles": "COc1ccc2ncc(F)c(CC(=O)C34CCC(NCc5ccc6c(n5)NC(=O)CO6)(CC3)CO4)c2n1", "note": "[Example 23, 6-((1-(2-(3-Fluoro-6-methoxy-1,5-naphthyridin-4-yl)acetyl)-2-oxabicyclo[2.2.2]octan-4-ylamino)methyl)-2H-pyrido[3,2-b][1,4]oxazin-3(4H)-one]", "MIC": 0.125}
{"smiles": "COc1ccc2ncc(F)c(CCC34CCC(NCc5cc6cccnc6n(C)c5=O)(CC3)CO4)c2n1.Cl", "note": "[Example 183, 3-((1-(2-(3-Fluoro-6-methoxy-1,5-naphthyridin-4-yl)ethyl)-2-oxabicyclo[2.2.2]octan-4-ylamino)methyl)-1-methyl-1,8-naphthyridin-2(1H)-one Hydrochloride]", "MIC": 1}
{"tested_on": "Staphylococcus aureus Smith", "test": "MIC assay, modified agar dilution (CLSI), S. aureus Smith", "assay_type": "cell-based", "conditions": "agar dilution, 35° C., 16-20 hr; lowest concentration that completely inhibited growth", "procedure,_shortened": "as §1", "units": {"S_aureus_Smith_WT_MIC": "µg/mL"}}
{"smiles": "O=C1COc2ccc(CNC34CCC(C(O)Cn5c(=O)ccc6ncc(F)cc65)(CC3)OC4)nc2N1", "note": "(single isomer, unassigned) [Example 55b, 6-((1-(2-(7-fluoro-2-oxo-1,5-naphthyridin-1(2H)-yl)-1-hydroxyethyl)-2-oxabicyclo[2.2.2]octan-4-ylamino)methyl)-2H-pyrido[3,2-b][1,4]oxazin-3(4H)-one]", "S_aureus_Smith_WT_MIC": 0.250}
{"smiles": "COc1ccc2ncc(Cl)c(CC(O)C34CCC(NCc5ccc6c(n5)NC(=O)CO6)(CC3)CC4)c2n1.Cl", "note": "(single isomer, unassigned) [Example 14b, 6-((4-(2-(3-Chloro-6-methoxy-1,5-naphthyridin-4-yl)-1-hydroxyethyl)bicyclo[2.2.2]octan-1-ylamino)methyl)-2H-pyrido[3,2-b][1,4]oxazin-3(4H)-one Hydrochloride]", "S_aureus_Smith_WT_MIC": 0.0310}
{"smiles": "COc1cnc2ccc(=O)n(CC(O)C34CCC(NCc5ccc6c(n5)NC(=O)CO6)(CC3)CO4)c2c1", "note": "(single isomer, unassigned) [Example 54b, 6-(((1-(1-hydroxy-2-(7-methoxy-2-oxo-1,5-naphthyridin-1(2H)-yl)ethyl)-2-oxabicyclo[2.2.2]octan-4-yl)amino)methyl)-2H-pyrido[3,2-b][1,4]oxazin-3(4H)-one]", "S_aureus_Smith_WT_MIC": 0.0160}
{"tested_on": "Staphylococcus aureus Smith", "test": "MIC assay, modified agar dilution (CLSI), S. aureus Smith", "assay_type": "cell-based", "conditions": "agar dilution, 35° C., 16-20 hr; lowest concentration that completely inhibited growth; Hydrochloride", "procedure,_shortened": "as §1", "units": {"S_aureus_Smith_WT_MIC": "µg/mL"}}
{"smiles": "COc1ccc2ncc(F)c(C(O)C(O)C34CCC(NCc5ccc6c(n5)NC(=O)CO6)(CC3)CO4)c2n1.Cl", "note": "(single isomer, unassigned) [Example 26a, 6-((1-(2-(3-Fluoro-6-methoxy-1,5-naphthyridin-4-yl)-1,2-dihydroxyethyl)-2-oxabicyclo[2.2.2]octan-4-ylamino)methyl)-2H-pyrido[3,2-b][1,4]oxazin-3(4H)-one Hydrochloride]", "S_aureus_Smith_WT_MIC": 0.250}
{"smiles": "COc1ccc2ncc(F)c(C3OC(=O)OC3C34CCC(NCc5ccc6c(n5)NC(=O)CO6)(CC3)CO4)c2n1.Cl", "note": "(single isomer, unassigned) [Example 27a, 6-((1-(5-(3-Fluoro-6-methoxy-1,5-naphthyridin-4-yl)-2-oxo-1,3-dioxolan-4-yl)-2-oxabicyclo[2.2.2]octan-4-ylamino)methyl)-2H-pyrido[3,2-b][1,4]oxazin-3(4H)-one Hydrochloride]", "S_aureus_Smith_WT_MIC": 0.250}
